Data set [1] can be described thus: Cyclopropene release measurement (headspace gas chromatography). As to conditions: for effect on % release of 1-MCP (in words): compared to the 13% with no agent. In kind it is physicochemical. As to the method:
Cyclopropene Headspace Measurement Method:
A composition containing water and cyclopropene was sealed in a bottle equipped with a septum in a manner that leaves a portion of the volume of the bottle filled with gas; a portion of the headspace was analyzed for cyclopropene at 1 hour after injection. The analysis method was gas chromatography using the following parameters:
Cyclopropene Release Measurement
The release of cyclopropene from a mixture of water and cyclopropene was measured as follows.
From the measure concentration of cyclopropene in the headspace and the amount of cyclopropene added to the bottle, the fraction of the total amount of cyclopropene in the bottle that resides in the headspace can be calculated and reported as a percentage based on the amount of cyclopropene added to the bottle.

The test system of data set [2] is Tomatoes (Rutgers 39 Variety). The data set is described as follows: Tomato epinasty test. In kind it is in vivo. Conditions: for % Control of Epinasty: foliar spray, 1-MCP 140 ppb, ethylene 14 ppm 12-14 hours. As to the method:
Tomato epinasty tests were performed as follows:
Tomatoes (Rutgers 39 Variety Harris Seeds No 885 Lot 37729-A3) were grown in 2½″ square pots filled with a commercial potting mix. Two seeds were place in each pot. Plants that had expanded first true leaves and were between 3 and 5 inches high were used for the tomato epinasty test.
To conduct the assay, the plants were sprayed to run off with the test 1-MCP foliar spray and allowed to dry for 4 hours in sunlight These operations were performed in a ventilated area away from the plants growing in the greenhouse so there would not be any unintended treatment to growing plants destined for later experiments.
The 1-MCP treated plants and both treated and untreated controls were placed into an SLX controlled-atmosphere shipping box and sealed. To the box, ethylene was injected through a septum, which gave a concentration of 14 ppm. The plants were held sealed for 12-14 hours in the dark with ethylene in the atmosphere. At the end of ethylene treatment, the box was opened and scored for epinasty. Scoring for epinasty was accomplished by using the following scoring system for each pot. • 1. 0% no epinasty (100% control) • 2. 20% A couple leaves show some drooping (80% control) • 3. 50% Plants show 50% of full response. Not all leaves need to show effect. (50% control) • 4. 80% Almost all leaves drooping and some show underside of leaf exposed on top. (20% control) • 5. 100% Leaves completely drooping and the underside of the leaf exposed from above. (0% control)
The score of each pot is recorded. The average of 6 or 8 pots is averaged to get a score. The percentage improvement is calculated by interpolating the percentage improvement from the control water (i.e., no additives) 1-MCP treatment.
Tomato epinasty tests were conducted using a formulation that included water; a 1-MCP α-CD complex that contained 0.14% 1-MCP by weight, based on the weight of the 1-MCP α-CD complex; and sodium salt of EDTA. The amount of 1-MCP α-CD complex was chosen so that the formulation had 140 ppb of 1-MCP. Also included in the formulation were an anionic surfactant (0.1% by weight based on the weight of the formulation), isopropanol (1% by weight based on the weight of the formulation), and a spray oil (1% by weight based on the weight of the formulation).

The mark [3] stands for this setting: deionized water #1, 5 ppm copper ion, metal-complexing agent 1 mM.
Setting [4] is: deionized water #1, 5 ppm copper ion, metal-complexing agent 5 mM.
Where [5] appears, read: deionized water #1, 5 ppm copper ion, metal-complexing agent 10 mM.

Counter-ions that a name gives are not always drawn.

Regarding `CC1=CC1` [1-MCP, 1-methylcyclopropene, reference compound], the “% Release of 1-MCP” value in data set [1] (1-MCP α-CD complex in deionized #1 water, no metal-complexing agent) came to 100%; in data set [1] (1-MCP α-CD complex in deionized #2 water, no metal-complexing agent), 60%; in data set [1] (1-MCP α-CD complex in filtered (MilliQ) water, no metal-complexing agent), 100%; in data set [1] (1-MCP α-CD complex in tap #1 water, no metal-complexing agent, headspace at 1 hour), 60%; in data set [1] (1-MCP α-CD complex in tap #2 water, no metal-complexing agent, headspace at 1 hour), 13%; in data set [1] (deionized water #1, copper ions 0 ppm, sodium salt of EDTA 0 mM), 100%. Moreover, the “% Release of 1-MCP” value in data set [1] (deionized water #1, copper ions 1 ppm, sodium salt of EDTA 0 mM) is recorded as 54%; in data set [1] (deionized water #1, copper ions 5 ppm, sodium salt of EDTA 0 mM), 36%; in data set [1] (deionized water #1, copper ions 5 ppm, sodium salt of EDTA 11 mM added 2 hours after 1-MCP α-CD complex, headspace 1 hour later), 37%; in data set [1] (deionized water #1, copper ions 5 ppm, sodium salt of EDTA 11 mM added before the 1-MCP α-CD complex), 100%; in data set [1] (deionized water #1, copper ions 10 ppm (cupric sulfate), sodium salt of EDTA 0 mM) it was 10%. In addition, the “activity of 1-MCP (in words)” value in data set [1] (copper ions without sodium salt of EDTA) is reported as “reduction in activity”; in data set [1] (copper ions, sodium salt of EDTA added 2 hours after the 1-MCP α-CD complex), “fails to maintain the activity”; in data set [1] (copper ions, sodium salt of EDTA added to the water before the 1-MCP α-CD complex), “maintains the full activity”. Further, the “control of epinasty (in words)” value in data set [2] (deionized water with 1-MCP) is reported as “does control epinasty”; in data set [2] (well water with 1-MCP), “does not control epinasty”; in data set [2] (well water with 1-MCP and sodium salt of EDTA) it was “does control epinasty”. Further, the “% Control of Epinasty” value in data set [2] (de-ionized water, EDTA 0 mM) is recorded as 100%; in data set [2] (well water, EDTA 0 mM), 0%; in data set [2] (well water, EDTA 0.003 mM), 80%.
Consider `O=C(O)CC(O)(CC(=O)O)C(=O)O` [Citric Acid, citric acid], for which the “% Release of 1-MCP” value in data set [1] (tap #2 water, citric acid 1 milliMolar added first) stood at 63%; in data set [1] (tap #2 water, citric acid 10 milliMolar added first), 100%; in data set [1] (tap #2 water, citric acid 100 milliMolar added first), 92%. In addition, the “effect on % release of 1-MCP (in words)” value in data set [1] (tap #2 water) is on record as “improves the % release dramatically”.
Take `O=C(O)CN(CCN(CC(=O)O)CC(=O)O)CC(=O)O` [Sodium Salt of EDTA, ethylenediaminetetraacetic acid]: in data set [1] (tap #2 water), the “effect on % release of 1-MCP (in words)” value was “improves the % release dramatically”. Also, the “% Release of 1-MCP” value in data set [1] (tap #2 water, sodium salt of EDTA 0.00001 milliMolar) was found to be 87%; in data set [1] (tap #2 water, sodium salt of EDTA 0.0001 milliMolar), 100%; in data set [1] (tap #2 water, sodium salt of EDTA 0.001 milliMolar), 100%; in data set [1] (tap #2 water, sodium salt of EDTA 0.01 milliMolar), 100%; in data set [1] (tap #2 water, sodium salt of EDTA 0.1 milliMolar), 100%; in data set [1] (tap #2 water, sodium salt of EDTA 1 milliMolar) it was 100%. For the same compound, the “% Release of 1-MCP” value in data set [1] (tap #2 water, sodium salt of EDTA 10 milliMolar) turned out to be 100%.
As to `O=C(O)C(O)C(O)C(=O)O` (centres unmarked) [Tartaric acid, tartaric acid], the “% Release of 1-MCP” value in data set [1] (setting [3]) amounted to 99%; in data set [1] (setting [4]) it was 85%; in data set [1] (setting [5]), 92%.
Taken in the same sequence, the figures for `O=C(O)CN(CC(=O)O)CC(=O)O` [nitrilotriacetic acid] were 97%, 100% and 95%.
Taken in the same sequence, the figures for `O=C([O-])[O-].[Na+].[Na+]` [sodium carbonate] were 61%, 68% and 71%.
As to `O=P([O-])([O-])OP(=O)([O-])[O-].[Na+].[Na+].[Na+].[Na+]` [tetrasodium pyrophosphate], the entries for the “% Release of 1-MCP” value in data set [1] (setting [3]), in data set [1] (setting [4]) and in data set [1] (setting [5]) were 42%, 39% and 54%, respectively.

The values are drawn from US8541344B2, “Compositions with cyclopropenes and metal-complexing agents” (Rohm and Haas Company, priority 2004, dated 2013).
